Patent US20260240841A1, “COMBINATION OF HPK1 INHIBITOR AND AXL INHIBITOR IN CANCER THERAPY” (BOARD OF REGENTS, THE UNIVERSITY OF TEXAS SYSTEM, priority 2023, published 2026)

How the values were obtained:
[1] = tested on: pancreatic cancer; details: Ludwig et al.; cited from earlier work
[2] = tested on: orthotopic KPC-Luc pancreatic tumors; assay: Orthotopic KPC-Luc pancreatic cancer model treated with MRTX1133; format: in vivo, mouse; details: for tumor weight: 25 mg/kg twice daily for ten days, weighed seven days after completion, FIG. 10
Procedure: (§1) For sub-cutaneous xenograft studies, the C57BL/6 female or male mice aged 5-7 weeks (Jackson Labs) were used. 1×10^6 KPC-Luc cells or 2×10^5 B16F10 melanoma cells were injected into the dorsal region of the wild type (WT) or HPK1-mice. Animals were imaged using the IVIS Spectrum, PerkinElmer and Bruker ICON MRI at 3 and 10 days after successful implantation of KPC-Luc cells. Only mice with similar tumor volume (~150 mm^3) were used for treatment studies. These experiments were randomized. […] Mice were euthanized for tumor collection once tumor volume was approximately ~1000 mm^3. For orthotopic studies, 0.5×10^6 KPC-Luc cells were implanted orthotopically into WT C57BL/6 mice and/or HPK1^−/− mice pancreas. Bioluminescence imaging with the IVIS Spectrum (Perkin Elmer) was performed after intraperitoneal injection of 1.5 mg of D-luciferin (PerkinElmer). After image acquisition, the Living Image 4.7 software (PerkinElmer) was used for analysis of images. Therapy was initiated at day 10 post tumor cell injection. All mice were sacrificed on Day 35 for survival study or otherwise labeled in the Figures.
(§2) To examine the effects of pharmacological inhibition of Axl, Kras, and HPK1 with or without Anti-41BB/CD137 on tumor growth, Axl inhibitor (Bemcentinib MedChem Express) was dosed at 10 mg/kg/day for intraperitoneal injection (IP). HPK1-IN-7 (HPK1 inhibitor #1 MedChem Express) was dosed at 20 mg/kg/day orally, GNE1858 (HPK1 inhibitor #2 MedChem Express) was dosed at 10 mg/kg/day orally. KRAS^G12D inhibitor (MRTX1133, MedChem Express) was dosed at 25 mg/Kg twice daily for intraperitoneal injection. Anti-41BB (clone LOB12.3, BioXCell, BE0169) antibody and its corresponding isotype IgG controls were intraperitoneally administered at 200 μg per injection for three times per week. The duration of treatment was 10 days. Tumor size was measured every other day using the methods as previously described.
To further evaluate the association, tumor size was determined in mice treated with MRTX1133. […]

[3] = tested on: mouse PDAC models; details: cited from earlier work
[4] = tested on: orthotopic xenograft tumors of KPC-Luc cells; assay: IVIS bioluminescence imaging of orthotopic KPC-Luc xenograft tumors treated with Axl inhibitor; format: in vivo, mouse; details: imaged 17 days post implantation with KPC-Luc cells
Procedure: as §1, with “All mice were sacrificed on Day 35 for survival study or otherwise labeled in the Figures.” left out
To examine the effects of pharmacological inhibition of Axl, Kras, and HPK1 with or without Anti-41BB/CD137 on tumor growth, Axl inhibitor (Bemcentinib MedChem Express) was dosed at 10 mg/kg/day for intraperitoneal injection (IP). […] Tumor size was measured every other day using the methods as previously described. […]

[5] = tested on: orthotopic xenograft tumors of KPC-Luc cells; assay: Multicolor flow cytometry of intra-tumoral hematopoietic cells from KPC-Luc xenograft tumors; format: in vivo, mouse
Procedure: For flow cytometry studies, orthotopic xenograft tumors of KPC-Luc cells from the HPK1−/− or wild type control were digested in digestion buffer (1 mg/mL collagenase IV and 10 U/mL DNase I in Dulbecco's Modified Eagle Medium (DMEM)) at 37° C. for 30 minutes. After thorough mixing, the samples were pushed through a 70-μm cell strainer and washed with 40 ml DMEM without fetal bovine serum (FBS), The digested cells were re-suspended in 37 % Percoll and overlaid on top of the same volume of 70% Percoll. After centrifugation at 800 g for 20 minutes with break off, the lymphocytes were isolated from the interface and rinsed with PBS. The cells were first stained by Zombie UV, followed by incubation in a cocktail comprising the following antibodies in cell staining buffer: anti-CD45, anti-CD38, anti-B220, anti-CD11b, anti-F4/80, anti-Ly6C, anti-Ly6G, anti-CD4, anti-IA/IE, and anti-CD8g. After washing, the stained cells were submitted for multiple-color flow cytometry. The results were processed using FlowJo software.
Following tumor xenograft imaging, the tumors were excised from the mice and subsequently prepared for flow cytometry as described above.

[6] = tested on: KPC-Luc cells; assay: KPC-Luc tumor growth in WT C57BL/6 mice under Axl inhibitor, HPK1 inhibitor, CD137 antibody and combinations; format: in vivo, mouse; details: treated 10 days
Procedure: as §1
To examine the effects of pharmacological inhibition of Axl, Kras, and HPK1 with or without Anti-41BB/CD137 on tumor growth, Axl inhibitor (Bemcentinib MedChem Express) was dosed at 10 mg/kg/day for intraperitoneal injection (IP). HPK1-IN-7 (HPK1 inhibitor #1 MedChem Express) was dosed at 20 mg/kg/day orally, GNE1858 (HPK1 inhibitor #2 MedChem Express) was dosed at 10 mg/kg/day orally. […] Tumor size was measured every other day using the methods as previously described.
Tumors were grown in wild-type mice, and treatment was performed as described above. Following treatment, tumors were excised from the mice and both tumor volume and tumor weight were measured.
To further study the synergistic effects of the combination therapy, tumors were grown in wild-type mice and treatment was performed as described above. Following treatment, tumors were excised from the mice and tumor weight was evaluated. […]

[7] = tested on: B16F10 melanoma cells; assay: Subcutaneous B16F10 melanoma xenograft model; format: in vivo, mouse; details: for tumor weight: FIG. 12B
Procedure: as §1, §2
To evaluate the therapeutic effect of an Axl inhibitor, bemcentinib, on melanoma, subcutaneous tumors of subcutaneous melanoma xenograft model of B16F10 cells in HPK1 knockout mice and wild type mice were treated with 10 mg/kg/day bemcentinib by intraperitoneal injection (IP) twice daily for 10 days. The tumor volumes (FIG. 12A) and tumor weight (FIG. 12B) were measured at 12 days after the completion of treatment.
Subcutaneous melanoma xenograft tumors of B16F10 cells were grown in wild-type mice, and treatment was performed as described above. Following treatment, tumors were excised from the mice at day 12 after completion of therapy and both tumor volume and tumor weight were measured.

## Nc1nc(Nc2ccc3c(c2)CC[C@@H](N2CCCC2)CC3)nn1-c1cc2c(nn1)-c1ccccc1CCC2 [BGB324]
[1]
  aggressiveness of pancreatic cancer: inhibits the aggressiveness of pancreatic cancer
  sensitivity of pancreatic cancer cells to gemcitabine: sensitizes pancreatic cancer cells to gemcitabine
  tumor immune microenvironment: induces an immune stimulatory microenvironment

## C#Cc1c(F)ccc2cc(O)cc(-c3ncc4c(N5CC6CCC(C5)N6)nc(OC[C@@]56CCCN5C[C@H](F)C6)nc4c3F)c12 [MRTX1133]
[2]; HPK1 knockout mice
  tumor weight: significant decrease in tumor weight
[2]; wild type mice
  tumor weight: slight decrease in tumor weight
[2]; wild-type mice versus HPK1 knockout mice, 25 mg/kg IP twice daily, imaged 7 days after treatment, FIG. 9
  response of tumor size shown by luminescence: less responsive than the HPK1 knockout mice
[3]
  tumor growth: shrink tumors or halt the growth

## Nc1nc(Nc2ccc3c(c2)CC[C@@H](N2CCCC2)CC3)nn1-c1cc2c(nn1)-c1ccccc1CCC2 [bemcentinib]
[4]; HPK1 knockout mice, FIG. 3B
  tumor growth (luminescence): inhibited the growth of the tumor
[4]; wild type mice, FIG. 3A
  tumor volume (luminescence): little to no decrease in the tumor volume
[5]; HPK1 knockout mice, FIG. 4B
  CD3+ T cells and CD8+ T cells in the tumor microenvironment: increased
[5]; HPK1 knockout mice, tumor microenvironment, FIG. 4B
  infiltration of macrophages and myeloid suppressor cells: decreased the infiltration
[5]; wild-type mice, intra-tumoral, FIG. 4A
  number or function of B cells, CD3+ cells, CD4+ T cells, CD8+ T cells, CD11b+ cells, M-MDSC's, PMN-MDSC's, macrophages, neutrophils: did not increase or decrease
[6]; measured 15 days after completion of treatment, FIG. 6A
  tumor volume: did not significantly decrease
[6]; weighed 12 days after completion, control about 0.6 grams, FIG. 7
  tumor weight compared to control (in words): only minimally reduced
[6]; weighed 15 days after completion of treatment, FIG. 6B
  tumor weight compared to control: reduced the tumor weight to a small degree
[7]; HPK1 knockout mice, 10 mg/kg/day IP for 10 days, 12 days after completion, FIG. 12A
  tumor volume: significant decrease
[7]; HPK1 knockout mice, 10 mg/kg/day IP for 10 days, 12 days after completion
  tumor weight: significant decrease
[7]; wild type mice, 10 mg/kg/day IP for 10 days, 12 days after completion, FIG. 12A
  tumor volume: slight decrease
[7]; wild type mice, 10 mg/kg/day IP for 10 days, 12 days after completion
  tumor weight: slight decrease
[7]; wild-type mice, inhibitor comparison, treated 10 days, day 12 after completion, FIG. 13A
  tumor volume: did not significantly decrease
[7]; wild-type mice, inhibitor comparison, treated 10 days, day 12 after completion, FIG. 13B
  tumor weight compared to control: reduced the tumor weight to a small degree
